Assay results as given in patent publication EP1525218B1, “BICYCLIC OLIGOPEPTIDES AND THEIR USE AS GLUCAGON RECEPTOR ANTAGONISTS” (Boehringer Ingelheim Pharma GmbH & Co.KG, priority 2002, dated 2004).
Where two headings read alike, the source gives them in different places. Positions of bridges follow the written chain, without caps; N, C: chain ends. Residues, ends and D or L forms follow the SMILES beside them.

Key:
[1] = Solubility in buffer; type: physicochemical
Text: and the following solubilities:

[2] = target: T1, human glucagon receptor (Homo sapiens, UniProt P47871); test: Glucagon binding assay (competition binding with 125I-glucagon, BHK-21 cell membranes)
T1 construct: expressed in transfected cells; host or cells: BHK-21(C-13) baby hamster kidney cells, stably transfected (pcDNA3.1 construct, G-418 selection); plasma membranes
T1 sequence (P47871 26-477): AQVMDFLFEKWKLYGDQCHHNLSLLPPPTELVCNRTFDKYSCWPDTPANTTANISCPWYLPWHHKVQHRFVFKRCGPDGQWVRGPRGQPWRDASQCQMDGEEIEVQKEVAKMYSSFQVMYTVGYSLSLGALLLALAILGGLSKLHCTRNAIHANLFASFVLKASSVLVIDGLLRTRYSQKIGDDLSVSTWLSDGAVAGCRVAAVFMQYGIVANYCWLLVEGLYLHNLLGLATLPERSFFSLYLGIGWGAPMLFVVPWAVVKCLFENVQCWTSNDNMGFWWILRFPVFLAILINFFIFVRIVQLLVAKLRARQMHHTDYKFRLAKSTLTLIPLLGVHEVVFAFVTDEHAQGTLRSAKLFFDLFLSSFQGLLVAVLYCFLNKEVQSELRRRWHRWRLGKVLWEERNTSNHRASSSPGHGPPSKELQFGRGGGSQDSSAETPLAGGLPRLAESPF
Procedure: Binding of peptides to the glucagon receptor was assayed in a competition binding-assay using a membrane fraction containing the cloned human glucagon receptor and radiolabeled glucagon. The cDNA coding for the human glucagon receptor was cloned into expression vector pcDNA3.1 (Invitrogene). Baby hamster kidney cells (BHK-21(C-13) cells (ATCC)) were transfected with the expression construct for the human glucagon receptor and a stably transfected cell clone was isolated after selection with G-418 (Gibco). Plasma membranes containing the human glucagon receptor were prepared from stably transfected BHK-21 cells. Cells were grown to confluence, washed and detached with ice cold PBS buffer (Gibco), containing 0.05% EDTA and collected in PBS buffer. The cells were collected by centrifugation and suspended in 20 volumes of ice-cold tris buffer (10 mM tris/HCl, pH7.2; 0.01 mM PMSF (Phenylmethylsulfonyl fluoride)) and incubated for 90 minutes. […] The protein-bound radioactivity is separated from unbound ligand by filtration and washing on a Multiscreen-[…] (Millipore) using GC/B filters (Packard) and measured after addition of 20 μl Microscint 20 in a topcount scintillation counter (Packard). The non-specific binding is defined as radioactivity bound in the presence of 1 μM glucagon (Wherl GmbH). Accordingly an IC50 value can be calculated from the results obtained in the above test method. […]

[3] = Metabolic stability with liver microsomes; type: in vitro ADME; conditions: substrate initial conc. 1 µM, 37°C, up to 45 min
Procedure: (§1) Incubations with preparations of microsomes and cytosol and with plasma under conditions as described below are suitable to investigate the metabolic stability of test compounds (e.g. oxidative metabolism reactions and hydrolysis by esterases). The metabolic stability of the test compounds of examples 1 and 2 is investigated in liver microsomes and cytosol of humans, dogs and rats and in plasma of humans and rats.
(§2) Incubations of test compounds (final concentration: 1 µM) are performed with liver microsomes and cytosol (0.5 mg protein/ml) in Tris buffer (Tris-(hydroxymethyl)-aminomethane) pH 7.4 (0.1 M) containing magnesium chloride (5 mM) at 37°C for up to 45 min in a total volume of 100 µl. The reaction is initiated by addition of β-nicotinamide adenine dinucleotide phosphate, reduced form (NADPH, 1 mM) and terminated by addition of acetonitrile. After vortex mixing and centrifugation the supernatants are analyzed.
(§3) The samples are analyzed by on-line solid phase extraction and reversed phase HPLC coupled to electro-spray ionization tandem mass spectrometry. The measurements are performed on a triple quad mass spectrometer Quattro II (Micromass, Manchester, UK). The instrument operates at nominal mass resolution in SIR-mode. The analytes are quantified by detection of their quasimolecular ions [M+2H]^2+ m/z 1019 (Example 1) and m/z 1026 (Example 2).

[4] = Metabolic stability with liver cytosol; type: in vitro ADME; conditions: substrate initial conc. 1 µM, 37°C, up to 45 min
Procedure: as §1, §2, §3

[5] = Stability in plasma; type: in vitro ADME; conditions: Rat Plasma; substrate initial conc. 1 µM; 37°C, up to 45 min
Procedure: as §1
Incubations of test substrates (final concentration: 1 µM) are performed with human and rat plasma (heparin) containing 0.1 M Tris buffer pH 7.4. The reaction is initiated by addition of the test compound at 37°C for up to 45 min and terminated by addition of acetonitrile. After vortex mixing and centrifugation the supernatants are analyzed.
as §3

Row | SMILES | solubilities ([1]; Buffer pH 3.0) [mg/mL] | solubilities ([1]; Buffer pH 7.4) [mg/mL] | solubilities ([1]; Buffer pH 10.0) [mg/mL] | IC50 ([2]; competition with 125I-glucagon, membranes with cloned human glucagon receptor, read-out: IC50) [µM] | Half-lives, (t½ [min]) ([3]; Dog Micros) | Half-lives, (t½ [min]) ([3]; Human Micros) | Half-lives, (t½ [min]) ([3]; Rat Micros) | Half-lives, (t½ [min]) ([4]; Dog Cytosol) | Half-lives, (t½ [min]) ([4]; Human Cytosol) | Half-lives, (t½ [min]) ([4]; Rat Cytosol) | Half-lives, (t½ [min]) [5] | IC50 [2] [µM]
1 | CC[C@H](C)[C@@H]1NC(=O)[C@@H]2CC(=O)NCC(=O)N[C@@H](CC(C)C)C(=O)N3CCC[C@H]3C(=O)N[C@@H](Cc3c[nH]c4ccccc34)C(=O)NCC(=O)N[C@@H](CSSC[C@@H](C(=O)O)NC(=O)[C@H](C)NC(=O)[C@H](Cc3c[nH]c4ccccc34)NC(=O)[C@@H]3CCCN3C(=O)[C@H]([C@@H](C)O)NC(=O)[C@H](CC(N)=O)NC(=O)[C@H](Cc3c[nH]c4ccccc34)NC(=O)CNC(=O)[C@@H]3CCCN3C1=O)C(=O)N1CCC[C@H]1C(=O)N[C@@H](CO)C(=O)N2 [Example 1] (GLPWGCPSDIPGWNTPWAC-OH; disulfide 6-19; lactam N-9) | 0.003 | 0.120 | 0.092 | 0.1 | stable | stable | stable | stable | stable | stable | stable | –
2 | CC[C@H](C)[C@@H]1NC(=O)[C@@H]2CC(=O)NCC(=O)N[C@@H](CC(C)C)C(=O)N3CCC[C@H]3C(=O)N[C@@H](Cc3c[nH]c4ccccc34)C(=O)NCC(=O)N[C@@H](CSSC[C@@H](C(=O)OC)NC(=O)[C@H](C)NC(=O)[C@H](Cc3c[nH]c4ccccc34)NC(=O)[C@@H]3CCCN3C(=O)[C@H]([C@@H](C)O)NC(=O)[C@H](CC(N)=O)NC(=O)[C@H](Cc3c[nH]c4ccccc34)NC(=O)CNC(=O)[C@@H]3CCCN3C1=O)C(=O)N1CCC[C@H]1C(=O)N[C@@H](CO)C(=O)N2 [Example 2] (GLPWGCPSDIPGWNTPWAC-OMe; disulfide 6-19; lactam N-9) | 0.003 | 0.002 | 0.004 | – | stable | stable | stable | – | – | – | stable | 0.135
